Measurements taken from ChEMBL document CHEMBL1201862, “PubChem BioAssay data set” (2004).
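Briefly, cells in 96-well plates were exposed to five compound concentrations for 48 h, and endpoints were estimated by linear interpolation. GI50 marks 50% less growth.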 Activity calls are given as the source filed them. No stated cut-off is given here; in the data, active = GI50 up to about 1.1 µM and inactive = higher.

How the values were obtained:
Test in all cases: inhibition of tumour cell growth, NCI panel, 48 h
[1] = system: SK-MEL-5
[2] = system: SW-620
[3] = system: OVCAR-3
[4] = system: NCI-H460
[5] = system: OVCAR-5
[6] = system: M14
[7] = system: HOP-62
[8] = system: NCI-H23
[9] = system: UACC-257
[10] = system: PC-3
[11] = system: NCI/ADR-RES
[12] = system: UACC-62
[13] = system: TK-10
[14] = system: LOX IMVI
[15] = system: 786-0
[16] = system: HL-60
[17] = system: SR
[18] = system: CCRF-CEM
[19] = system: U-251
[20] = system: SK-MEL-2
[21] = system: COLO 205
[22] = system: CAKI-1
[23] = system: NCI-H226
[24] = system: SF-539
[25] = system: HOP-92
[26] = system: MDA-MB-231
[27] = system: EKVX
[28] = system: Hs-578T
[29] = system: SF-295
[30] = system: RPMI-8226
[31] = system: NCI-H522
[32] = system: ACHN
[33] = system: SF-268
[34] = system: HT-29
[35] = system: KM12
[36] = system: HCT-15
[37] = system: UO-31
[38] = system: Malme-3M
[39] = system: K562
[40] = system: OVCAR-4
[41] = system: A498
[42] = system: SK-MEL-28
[43] = system: SNB-19
[44] = system: HCC 2998
[45] = system: MDA-N
[46] = system: SK-OV-3
[47] = system: MDA-MB-435
[48] = system: RXF 393
[49] = system: OVCAR-8
[50] = system: HCT-116
[51] = system: T47D
[52] = system: A549
[53] = system: IGROV-1
[54] = system: MOLT-4
[55] = system: SNB-75
[56] = system: SN12C
[57] = system: MCF7
[58] = system: DU-145

SMILES: CC(C)CC(NC(=O)C(Cc1ccccc1)NC(=O)[C@H]1CC[C@H](NC(=O)C(Cc2ccc(OC(C)(C)C)cc2)NC(=O)OC(C)(C)C)C1)C(N)=O (stereo partly specified)
- GI50 [1]: 1.07 µM (active)
- GI50 [2]: 29.2 µM (inactive)
- GI50 [3]: 25.9 µM (inactive)
- GI50 [4]: 17.3 µM (inactive)
- GI50 [5]: 31 µM (inactive)
- GI50 [6]: 16.6 µM (inactive)
- GI50 [7]: 36.2 µM (inactive)
- GI50 [8]: 16.2 µM (inactive)
- GI50 [9]: 19.7 µM (inactive)
- GI50 [10]: 18.1 µM (inactive)
- GI50 [11]: > 100 µM (inactive)
- GI50 [12]: 18.7 µM (inactive)
- GI50 [13]: 29.3 µM (inactive)
- GI50 [14]: 17.1 µM (inactive)
- GI50 [15]: 46.7 µM (inactive)
- GI50 [16]: 67 µM (inactive)
- GI50 [17]: 29.9 µM (inactive)
- GI50 [18]: 14.6 µM (inactive)
- GI50 [19]: 14.8 µM (inactive)
- GI50 [20]: 20.2 µM (inactive)
- GI50 [21]: 18.8 µM (inactive)
- GI50 [22]: > 100 µM (inactive)
- GI50 [23]: 18.6 µM (inactive)
- GI50 [24]: 14.4 µM (inactive)
- GI50 [25]: 23.8 µM (inactive)
- GI50 [26]: 31.9 µM (inactive)
- GI50 [27]: > 100 µM (inactive)
- GI50 [28]: 11.5 µM (inactive)
- GI50 [29]: 28.8 µM (inactive)
- GI50 [30]: 17.7 µM (inactive)
- GI50 [31]: 14.4 µM (inactive)
- GI50 [32]: 39.8 µM (inactive)
- GI50 [33]: 24.6 µM (inactive)
- GI50 [34]: 18.9 µM (inactive)
- GI50 [35]: 20.2 µM (inactive)
- GI50 [36]: 18 µM
- GI50 [37]: 47 µM (inactive)
- GI50 [38]: 26.4 µM (inactive)
- GI50 [39]: 17 µM (inactive)
- GI50 [40]: 29 µM (inactive)
- GI50 [41]: 39.7 µM (inactive)
- GI50 [42]: 20.2 µM (inactive)
- GI50 [43]: 38.4 µM (inactive)
- GI50 [44]: 14.5 µM (inactive)
- GI50 [45]: 19.3 µM (inactive)
- GI50 [46]: 44.7 µM (inactive)
- GI50 [47]: 18.7 µM (inactive)
- GI50 [48]: 67.8 µM (inactive)
- GI50 [49]: 18.4 µM (inactive)
- GI50 [50]: 14.7 µM (inactive)
- GI50 [51]: 18.5 µM (inactive)
- GI50 [52]: 50.9 µM (inactive)
- GI50 [53]: 23.1 µM (inactive)
- GI50 [54]: 12.5 µM (inactive)
- GI50 [55]: 27.8 µM (inactive)
- GI50 [56]: 17.7 µM (inactive)
- GI50 [57]: 17.3 µM (inactive)

SMILES: O=C(/C=C/c1cccs1)c1ccc(Cl)cc1
- GI50 [1]: 65.2 µM (inactive)
- GI50 [2]: 28.8 µM (inactive)
- GI50 [4]: > 100 µM (inactive)
- GI50 [5]: > 100 µM (inactive)
- GI50 [7]: > 100 µM (inactive)
- GI50 [8]: 88.5 µM (inactive)
- GI50 [9]: > 100 µM (inactive)
- GI50 [10]: > 100 µM (inactive)
- GI50 [11]: > 100 µM (inactive)
- GI50 [12]: > 100 µM (inactive)
- GI50 [13]: > 100 µM (inactive)
- GI50 [15]: 55.7 µM (inactive)
- GI50 [16]: 28.6 µM (inactive)
- GI50 [17]: 28.1 µM (inactive)
- GI50 [18]: 29.9 µM (inactive)
- GI50 [19]: > 100 µM (inactive)
- GI50 [20]: > 100 µM (inactive)
- GI50 [21]: > 100 µM (inactive)
- GI50 [23]: 67.8 µM (inactive)
- GI50 [24]: > 100 µM (inactive)
- GI50 [26]: > 100 µM (inactive)
- GI50 [27]: > 100 µM (inactive)
- GI50 [28]: > 100 µM (inactive)
- GI50 [29]: 99.3 µM (inactive)
- GI50 [30]: 22.2 µM (inactive)
- GI50 [32]: > 100 µM (inactive)
- GI50 [33]: 50.8 µM (inactive)
- GI50 [34]: 39.7 µM (inactive)
- GI50 [35]: 43.9 µM (inactive)
- GI50 [36]: 41 µM
- GI50 [37]: 82.2 µM (inactive)
- GI50 [58]: > 100 µM (inactive)
- GI50 [38]: > 100 µM (inactive)
- GI50 [39]: > 10 µM (inactive)
- GI50 [41]: 99.3 µM (inactive)
- GI50 [42]: > 100 µM (inactive)
- GI50 [43]: > 100 µM (inactive)
- GI50 [44]: > 100 µM (inactive)
- GI50 [45]: 44.9 µM (inactive)
- GI50 [46]: > 100 µM (inactive)
- GI50 [49]: 90.4 µM (inactive)
- GI50 [50]: 41.5 µM (inactive)
- GI50 [51]: 56.1 µM (inactive)
- GI50 [52]: > 100 µM (inactive)
- GI50 [53]: > 100 µM (inactive)
- GI50 [54]: 23.3 µM (inactive)
- GI50 [55]: > 100 µM (inactive)
- GI50 [56]: 51.5 µM (inactive)
- GI50 [57]: 21.9 µM (inactive)
